The target in data set [1] is T1, Solute carrier organic anion transporter family member 1B3 (Homo sapiens, UniProt Q9NPD5).
T1 sequence (Q9NPD5 whole entry): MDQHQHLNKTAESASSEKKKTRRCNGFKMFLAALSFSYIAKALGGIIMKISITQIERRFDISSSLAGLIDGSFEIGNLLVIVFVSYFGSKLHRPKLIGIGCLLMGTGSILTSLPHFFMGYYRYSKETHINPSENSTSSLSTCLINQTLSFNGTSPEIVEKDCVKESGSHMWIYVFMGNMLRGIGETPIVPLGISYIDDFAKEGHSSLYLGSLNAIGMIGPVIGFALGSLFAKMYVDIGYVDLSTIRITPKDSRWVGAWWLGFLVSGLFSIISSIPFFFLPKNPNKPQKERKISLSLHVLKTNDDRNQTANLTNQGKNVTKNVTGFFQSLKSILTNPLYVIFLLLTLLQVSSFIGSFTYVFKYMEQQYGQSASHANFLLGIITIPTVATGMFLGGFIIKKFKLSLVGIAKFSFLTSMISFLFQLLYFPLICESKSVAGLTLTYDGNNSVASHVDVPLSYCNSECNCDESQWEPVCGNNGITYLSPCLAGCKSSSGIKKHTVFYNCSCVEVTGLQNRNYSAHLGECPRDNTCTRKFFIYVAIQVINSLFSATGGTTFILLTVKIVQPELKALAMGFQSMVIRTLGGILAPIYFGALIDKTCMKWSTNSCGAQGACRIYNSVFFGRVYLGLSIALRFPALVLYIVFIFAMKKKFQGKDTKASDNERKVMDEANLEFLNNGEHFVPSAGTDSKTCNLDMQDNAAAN
To be noted: chinese hamster, cho, 10 µM.

For data set [2], the target named is T2, Solute carrier organic anion transporter family member 1B1 (Homo sapiens, UniProt Q9Y6L6).
T2 sequence (Q9Y6L6 whole entry): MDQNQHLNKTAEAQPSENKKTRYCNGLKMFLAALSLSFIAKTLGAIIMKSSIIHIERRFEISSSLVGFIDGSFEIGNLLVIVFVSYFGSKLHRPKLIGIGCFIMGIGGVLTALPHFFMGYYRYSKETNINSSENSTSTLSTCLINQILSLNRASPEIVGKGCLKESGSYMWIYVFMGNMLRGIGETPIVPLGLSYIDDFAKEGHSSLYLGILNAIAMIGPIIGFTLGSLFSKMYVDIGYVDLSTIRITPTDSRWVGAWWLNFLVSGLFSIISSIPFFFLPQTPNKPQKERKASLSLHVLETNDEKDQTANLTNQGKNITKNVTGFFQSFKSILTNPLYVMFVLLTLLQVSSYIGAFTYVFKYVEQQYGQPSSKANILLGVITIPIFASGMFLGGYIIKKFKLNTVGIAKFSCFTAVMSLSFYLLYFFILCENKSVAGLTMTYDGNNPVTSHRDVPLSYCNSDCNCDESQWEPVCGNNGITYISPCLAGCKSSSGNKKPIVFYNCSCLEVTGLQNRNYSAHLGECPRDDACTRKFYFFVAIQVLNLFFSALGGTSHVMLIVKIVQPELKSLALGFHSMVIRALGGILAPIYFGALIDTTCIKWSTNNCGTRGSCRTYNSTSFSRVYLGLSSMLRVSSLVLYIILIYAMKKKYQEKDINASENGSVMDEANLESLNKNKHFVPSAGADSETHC
The following applies: chinese hamster, cho, 10 µM.

What is called residual activity is the signal under treatment as a percentage of the control signal.

Turning to `O=[N+]([O-])c1cc([As](=O)(O)O)ccc1O` [ROXARSONE], the residual activity in data set [1] stood at 90.61%; in data set [2], 82.84%.
The matching figures for `CC[C@H]1OC(=O)[C@H](C)[C@@H](O[C@H]2C[C@@](C)(OC)[C@@H](O)[C@H](C)O2)[C@H](C)[C@@H](O[C@@H]2O[C@H](C)C[C@H](N(C)C)[C@H]2O)[C@](C)(O)C[C@@H](C)/C(=N\OCOCCOC)[C@H](C)[C@@H](O)[C@]1(C)O` [ROXITHROMYCIN]: 77.16% and 91.33%.
For the compound `CC[C@@]1(O)C[C@H](O)c2c(cc3c(c2O)C(=O)c2c(O)ccc(O)c2C3=O)[C@H]1C(=O)OC` [RUTILANTINONE], the residual activity in data set [1] came to 99.74%; in data set [2], 74.91%.
Consider `CCCCSP(=O)(SCCCC)SCCCC` [S,S,S,-TRIBUTYLPHOSPHOROTRITHIOATE], for which the residual activity came to 111.8% in data set [1] and 125.7% in data set [2].
The matching figures for `CC(=O)O.CSC(=N)NCCC[C@H](N)C(=O)O` [S-METHYL-L-THIOCITRULLINE ACETATE]: 107% and 104.5%.
Take `O=C1NS(=O)(=O)c2ccccc21` [SACCHARIN]: the figures for the residual activity in data set [1] and in data set [2] were 110.9% and 112.4%, respectively.
On the same counts, the results for `C=CCc1ccc2c(c1)OCO2` [SAFROLE] are 100.9% and 83.42%.
In the case of `OCC(O)Cc1ccc2c(c1)OCO2` (stereo not drawn) [SAFROLGLYCOL], the results for the residual activity in data set [1] and in data set [2] were 83.74% and 82.94%, respectively.
The matching figures for `OCc1ccccc1O[C@@H]1O[C@H](CO)[C@@H](O)[C@H](O)[C@H]1O` [SALICIN]: 97.32% and 85.64%.
Regarding `OCc1ccccc1O` [SALICYL ALCOHOL], the figures for the residual activity in data set [1] and in data set [2] were 117.7% and 92.07%, respectively.
With `NC(=O)c1ccccc1O` [SALICYLAMIDE], the residual activity in data set [1] was 94.84%; in data set [2] it was 85.6%.
On the same counts, the results for `COc1cc2c(cc1OC)[C@H](C)NCC2` [SALSOLIDINE] are 93.8% and 117.3%.
The matching figures for `COc1cc2c(cc1O)CCN[C@@H]2C` [SALSOLINE]: 112.8% and 86.65%.
For the compound `C[n+]1cc2c3c(ccc2c2ccc4cc5c(cc4c21)OCO5)OCO3.O=S(=O)([O-])O` [SANGUINARINE SULFATE], the residual activity is 92.42% in data set [1] and 134.6% in data set [2].
On the same counts, the results for `CC1=C2[C@H]3OC(=O)[C@@H](C)[C@@H]3CC[C@@]2(C)C=CC1=O` [SANTONIN] are 89.43% and 108.9%.
The matching figures for `COc1ccc2c(c1)OC/C(=C/c1ccc(O)c(O)c1)C2=O` [SAPPANONE A 7-METHYL ETHER]: 107.8% and 159.5%.
In the case of `COc1ccc2c(c1)OC/C(=C\c1ccc(OC)c(O)c1)C2=O` [SAPPANONE A DIMETHYL ETHER], the residual activity in data set [1] is 136.1%; in data set [2], 166.6%.
For `COc1ccc2c(c1)OC/C(=C/c1ccc(OC)c(OC)c1)C2=O` [SAPPANONE A TRIMETHYL ETHER], the residual activity in data set [1] came out at 100.7%; in data set [2], 112%.
In the case of `Cl.O=C(O)c1cn(-c2ccc(F)cc2)c2cc(N3CCNCC3)c(F)cc2c1=O` [SARAFLOXACIN HYDROCHLORIDE], the results for the residual activity in data set [1] and in data set [2] were 115.6% and 109.6%, respectively.
Regarding `C[C@]12CC[C@H](O)C[C@H]1CC[C@@H]1[C@@H]2[C@H](O)C[C@]2(C)[C@@H](C3=CC(=O)OC3)CC[C@]12O` [SARMENTOGENIN], the residual activity came out at 105.8% in data set [1] and 70.58% in data set [2].
The matching figures for `COC1C(O)C(O[C@H]2CC[C@]3(C=O)C4C(CC[C@]3(O)C2)[C@@]2(O)CC[C@H](C3=CC(=O)OC3)[C@@]2(C)C[C@H]4OC(C)=O)OC(C)C1OC(C)=O` (stereo partly drawn) [SARMENTOSIDE B]: 72.65% and 58.47%.
The matching figures for `COc1cc2ccc(=O)oc2cc1O` [SCOPOLETIN]: 99.95% and 87.31%.
The matching figures for `Cc1ncc([N+](=O)[O-])n1CC(C)O` (stereo not drawn) [SECNIDAZOLE]: 92.29% and 132.9%.
Take `O=C1C=C2C=C[C@@H]3C[C@@]2(O1)[C@H]1CCCCN31` [SECURININE]: the residual activity in data set [1] was found to be 115.4%; in data set [2], 92.42%.
As for `CO[C@H]1C[C@H](O[C@@H]2/C(C)=C/C[C@@H]3C[C@@H](C[C@]4(CC[C@H](C)[C@@H](C5CCCCC5)O4)O3)OC(=O)[C@@H]3C=C(C)/C(=N/O)[C@H]4OC/C(=C\C=C\[C@@H]2C)[C@]43O)O[C@@H](C)[C@@H]1O` [SELAMECTIN], the residual activity is reported as 93.37% in data set [1] and 98.02% in data set [2].
The matching figures for `CC1CCC(NC(=O)N(CCCl)N=O)CC1` (stereo not drawn) [SEMUSTINE]: 100.5% and 101.5%.
The matching figures for `CC(=O)Oc1c(-c2ccccc2)oc2c(CC=C(C)C)c3c(c(OC(C)=O)c2c1=O)C=CC(C)(C)O3` [SERICETIN DIACETATE]: 81.94% and 106.8%.
As to `CC(C)=CCc1c2c(c(O)c3c(=O)c(O)c(-c4ccccc4)oc13)C=CC(C)(C)O2` [SERICETIN], the values for the residual activity in data set [1] and in data set [2] were 98.26% and 89.94%, respectively.
The matching figures for `CN[C@H]1CC[C@@H](c2ccc(Cl)c(Cl)c2)c2ccccc21.Cl` [SERTRALINE HYDROCHLORIDE]: 72.13% and 66.16%.
`CCNc1nc(Cl)nc(NCC)n1` [SIMAZINE]: the residual activity in data set [1] worked out at 92.02%; in data set [2], 89.71%.
As to `COc1cc(/C=C/C(=O)O)cc(OC)c1OC` [SINAPIC ACID METHYL ETHER], the results for the residual activity in data set [1] and in data set [2] were 88.51% and 80.23%, respectively.
On the same counts, the results for `COC1=C[C@@H]2[C@@H]3Cc4ccc(OC)c(O)c4[C@]2(CCN3C)CC1=O` [SINOMENINE] are 68.46% and 105.5%.
As for `CC[C@H](CC[C@@H](C)[C@H]1CC[C@H]2[C@@H]3CC=C4C[C@@H](OC(C)=O)CC[C@]4(C)[C@H]3CC[C@]12C)C(C)C` [SITOSTERYL ACETATE], the figures for the residual activity in data set [1] and in data set [2] were 83.78% and 97.72%, respectively.
On the same counts, the results for `O=C([O-])CF.[Na+]` [SODIUM FLUOROACETATE] are 104.2% and 112.7%.
`O=C([O-])c1ccccc1O.[Na+]` [SODIUM SALICYLATE]: the results for the residual activity in data set [1] and in data set [2] were 80.83% and 55.28%, respectively.
On to `NC(=O)c1ccc[n+]([C@@H]2O[C@H](COP(=O)([O-])OP(=O)(O)OC[C@H]3O[C@@H](n4cnc5c(N)ncnc54)[C@H](OP(=O)(O)O)[C@@H]3O)[C@@H](O)[C@H]2O)c1` [SODIUM beta-NICOTINAMIDE ADENINE DINUCLEOTIDE PHOSPHATE], for which the residual activity in data set [1] is recorded as 105.1%; in data set [2], 190%.
The matching figures for `C[C@@H]1CC[C@]2(NC1)O[C@H]1C[C@H]3[C@@H]4CC=C5C[C@@H](O)CC[C@]5(C)[C@H]4CC[C@]3(C)[C@H]1[C@@H]2C` [SOLASODINE]: 113.6% and 91.83%.
For `CC(=O)N[C@@H](CC(=O)N[C@@H](CCC(=O)O)C(=O)O)C(=O)O` [SPAGLUMIC ACID], the residual activity in data set [1] was 87.85%; in data set [2] it was 87.3%.
Consider `COc1cc2ccc(=O)oc2c2ccoc12` [SPHONDIN], for which the residual activity in data set [1] turned out to be 102.5%; in data set [2], 127%.

The record behind these values is ChEMBL document CHEMBL3039007, “Structure-based identification of OATP1B1/3 inhibitors” (Mol Pharmacol, 2013).
